Publication PMC10770970, “Synthesis and cytotoxic activity evaluation of novel imidazopyridine carbohydrazide derivatives” (BMC Chemistry, 2024)
“Also recorded” adds a separate entry of the source.

What was measured:
[1] = test system: MCF-7 (human breast adenocarcinoma) cells; experiment: MTT reduction cytotoxicity assay, MCF-7; format: cell-based; details: Homo sapiens, MCF7, 72 h, ± S.E.M., max tested 100 µM
Method: (§1) All synthesized compounds were evaluated for cytotoxic activity against three human cancer cell lines including MCF-7, HT-29, and K562 by employing an MTT (3-(4,5-dimethylthiazol-2-yl)-2,5-diphenyltetrazolium bromide) assay. […] Cisplatin and doxorubicin were tested as standard chemotherapeutic reference agents.
(§2) MCF-7 (human breast adenocarcinoma), HT-29 (Human colorectal adenocarcinoma), K562 (human chronic myelogenous leukemia), and Vero (kidney epithelial cells of African green monkey) cells were obtained from Iranian Biological Resource Center, Tehran, Iran. MCF-7, K562, and Vero cells were cultured in RPMI 1640 medium containing 10% heat-inactivated fetal bovine serum (FBS) and 1% penicillin/streptomycin, while HT-29 cells were grown in DMEM low glucose, containing 20% heat-inactivated FBS and 1% penicillin/streptomycin. All cells were grown in monolayer culture at 37 °C in a humidified incubator with 5% CO2.
(§3) Assessment of cell viability after exposure of cancer and non-cancer cells to synthetic compounds was performed using the MTT (3-(4,5-dimethylthiazol-2-yl)-2,5-diphenyltetrazolium bromide) reduction assay. Cells were plated in 96-well microplates at densities of 30,000 cells/mL (100 μL in each well). The plates were incubated overnight at 37 °C and then 50 μL of the growth medium was replaced with the same amount of fresh medium containing 3–4 different concentrations of synthesized analogs at the final concentrations of 10–100 µM. Test compounds were initially dissolved in DMSO and then diluted in the growth medium. The upper limit of DMSO concentration in each well was 0.5%. After 72 h of incubation, 80 μL of the solution in each well was substituted with the same quantity of the growth medium comprising of MTT solution at 0.5 mg/mL. Cells were subsequently incubated at 37 °C for 4 h and then 80 μL of the solution in each well was removed. The introduction of DMSO (200 μL) to each well caused the formazan crystals formed inside the viable cells to dissolve. The process lasted 1.5 h (1 h of incubation and 30 min of shaking). The optical absorbance of the final solution was quantified at the wavelength of 570 nm using a microplate reader. IC50 values for all derivatives were calculated using CurveExpert 1.34 software.

[2] = test system: HT-29 (Human colorectal adenocarcinoma) cells; experiment: MTT reduction cytotoxicity assay, HT-29; format: cell-based; details: Homo sapiens, HT-29, 72 h, ± S.E.M., max tested 100 µM
Method: as §1, §2, §3

[3] = test system: K562 (human chronic myelogenous leukemia) cells; experiment: MTT reduction cytotoxicity assay, K562; format: cell-based; details: Homo sapiens, K562, 72 h, ± S.E.M., max tested 100 µM
Method: as §1, §2, §3

[4] = test system: Vero (kidney epithelial cells of African green monkey) cells; experiment: MTT reduction cytotoxicity assay, Vero non-cancer cells; format: cell-based; details: 72 h, ± S.E.M., max tested 100 µM
Method: as §1, §2, §3

MCF-7 cells [5] = experiment: Cell cycle analysis by RNase/propidium iodide flow cytometry; format: cell-based, human; details: 48 h; for Percent of MCF-7 cells in Sub G1: control 0.8 ± 0.3; for Percent of MCF-7 cells in S: control 11.7 ± 2.3; for Percent of MCF-7 cells in G2/M: control 26.1 ± 2.9; for Percent of MCF-7 cells in G0/G1: control 61.4 ± 1.4
Method: Fig. 3 Effect of compound 7d on cell cycle phase distribution of MCF-7 cells. The analysis of cells in different phases of the cell cycle was performed using propidium iodide (PI)-based assessment of cell cycle by flow cytometry. […] The cells were then collected, washed with PBS and fixed with 70% ethanol overnight at −20 °C. After 24 h, the fixed cells were incubated in a PI-RNase solution at room temperature and 10,000 cells were analyzed using a FACS Calibur flow cytometer (BD Biosciences)
The analysis of cells in different phases of the cell cycle and the sub-G1 phase were monitored using RNase/propidium iodide (PI)-based assessment of the cell cycle by flow cytometry. […] At the end of the incubation, the culture media in each well were collected and the cells were washed with PBS. Then, they were fixed with 70% ethanol overnight at −20 °C. After 24 h, the fixed cells were washed with PBS and subsequently stained with DNA staining solution (PI 20 μg/mL and RNase 200 μg/mL) at room temperature for 30 min in the dark. Ten thousand cells of each sample were analyzed using a FACS Calibur flow cytometer (BD Biosciences) and the percentage of the cells in sub-G1, G0/G1, S, and G2/M phases were calculated using CellQuest (BD, USA) software.

MCF-7 cells [6] = experiment: Apoptosis by Hoechst 33,258 staining; format: cell-based, human; details: 100 µM, 72 h
Method: This also further adds to the potential value of this derivative as an anticancer agent, as it is known that apoptosis evasion is an important hallmark of cancer, and apoptosis induction capacity is an important feature of any successful therapeutic agent.
Fig. 4 Measurement of apoptosis induced by Hoechst 33,258 staining assay. […] The cells were then stained with 2.5 µg/ml Hoechst 33,258 after being fixed with 4% cold paraformaldehyde (PFA) and imaged using a fluorescence microscope (Magnification: 500 X). Apoptotic cells as featured by nuclear shrinkage, fragmentation, condensation, etc., are shown by red arrows
Hoechst 33,258 staining assay was used to determine apoptosis induction in cancer cells. Hoechst 33,258 is a fluorescent dye that binds to minor grooves in DNA and is commonly used to determine the characteristic features of apoptosis including condensation and fragmentation, etc. in the cell’s nuclei. MCF-7 cells were cultured in 6-well plates at a density of 10^5 cells/ml and exposed to 100 µM of compound 7d for 72 h. The growth medium was completely removed at the end of the incubation time and the cells were fixed with 1 ml of 4% cold freshly prepared paraformaldehyde (PFA) and incubated for 20 min. […] In the end, the cells were washed twice with PBS and imaged with a fluorescence microscope (Nikon model DS-Ri2).

## O=C(NN=Cc1ccc(Br)cc1)c1cn2ccccc2n1 [Compound 7d, N´-(4-bromobenzylidene)imidazo[1,2-a]pyridine-2-carbohydrazide]
[1]
  IC50: 22.6 ± 1 µM
[2]
  IC50: 13.4 ± 1.3 µM
[3]
  IC50: > 100 µM
[4]
  IC50 Vero: completely inactive; also recorded: no toxic effect
[4]; Chlorocebus sabaeus, Vero
  IC50: > 100 µM
MCF-7 cells [5]; 7d 20 µM
  Percent of MCF-7 cells in Sub G1: 0.8 ± 0.6%
  Percent of MCF-7 cells in S: 11.9 ± 5.7%
  Percent of MCF-7 cells in G2/M: 23.3 ± 10.0%
  Percent of MCF-7 cells in G0/G1: 64.2 ± 7.6%
MCF-7 cells [5]; 7d 50 µM
  Percent of MCF-7 cells in Sub G1: 0.8 ± 0.6%
  Percent of MCF-7 cells in S: 11.1 ± 4.9%
  Percent of MCF-7 cells in G2/M: 21.1 ± 8.8%
  Percent of MCF-7 cells in G0/G1: 67.0 ± 8.4%
MCF-7 cells [5]; 7d 100 µM
  Percent of MCF-7 cells in Sub G1: 1.1 ± 0.9%
  Percent of MCF-7 cells in S: 10.2 ± 5.3%
  Percent of MCF-7 cells in G2/M: 21.5 ± 7.2%
  Percent of MCF-7 cells in G0/G1: 67.2 ± 7.5%
MCF-7 cells [5]; MCF-7 cells
  Effect on cell cycle phase distribution (in words): dose-dependent increase in the G0/G1 phase and a concomitant decrease in the G2/M phase; also recorded: increased the number of MCF-7 cells in the G0/G1 phase; also recorded: increase the number of cancer cells in the G0/G1 phase
MCF-7 cells [6]
  Apoptosis induction (in words): induce apoptosis; also recorded: clear signs of apoptosis including nuclear condensation and fragmentation
other
  melting point: 230 to 232 °C
